In PubChem BioAssay (NCI):
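Method: 48-hour compound exposure of cells in 96-well plates, five concentrations, linear interpolation of endpoints. The concentration for 50% growth inhibition is given as GI50. TGI: concentration producing complete growth inhibition.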

Experiments:
Assay in all cases: DTP human tumour cell line panel, 48 h
TK-10 renal = test system: TK-10 renal
SF-295 CNS = test system: SF-295 CNS
HCC-2998 colon = test system: HCC-2998 colon
OVCAR-8 ovarian = test system: OVCAR-8 ovarian
SNB-75 CNS = test system: SNB-75 CNS
IGROV1 ovarian = test system: IGROV1 ovarian
UACC-62 melanoma = test system: UACC-62 melanoma
HCT-15 colon = test system: HCT-15 colon
OVCAR-5 ovarian = test system: OVCAR-5 ovarian
MOLT-4 leukemia = test system: MOLT-4 leukemia
A498 renal = test system: A498 renal
SK-MEL-2 melanoma = test system: SK-MEL-2 melanoma
OVCAR-4 ovarian = test system: OVCAR-4 ovarian
SK-OV-3 ovarian = test system: SK-OV-3 ovarian
M14 melanoma = test system: M14 melanoma
U251 CNS = test system: U251 CNS
KM12 colon = test system: KM12 colon
DMS 273 small cell lung = test system: DMS 273 small cell lung
HOP-62 NSCLC = test system: HOP-62 NSCLC
CCRF-CEM leukemia = test system: CCRF-CEM leukemia
NCI-H460 lung = test system: NCI-H460 lung
OVCAR-3 ovarian = test system: OVCAR-3 ovarian
A549 NSCLC = test system: A549 NSCLC
HOP-92 NSCLC = test system: HOP-92 NSCLC
LXFL 529 NSCLC = test system: LXFL 529 NSCLC
SK-MEL-5 melanoma = test system: SK-MEL-5 melanoma
HOP-18 NSCLC = test system: HOP-18 NSCLC
SF-268 CNS = test system: SF-268 CNS
SW-620 colon = test system: SW-620 colon
NCI-H23 lung = test system: NCI-H23 lung
HL-60(TB) leukemia = test system: HL-60(TB) leukemia
M19-MEL melanoma = test system: M19-MEL melanoma
UO-31 renal = test system: UO-31 renal
MALME-3M melanoma = test system: MALME-3M melanoma
UACC-257 melanoma = test system: UACC-257 melanoma
RXF 393 renal = test system: RXF 393 renal
786-0 renal = test system: 786-0 renal
HCT-116 colon = test system: HCT-116 colon
SN12C renal = test system: SN12C renal
HT29 colon = test system: HT29 colon
SNB-19 CNS = test system: SNB-19 CNS
SF-539 CNS = test system: SF-539 CNS
SNB-78 CNS = test system: SNB-78 CNS
COLO 205 colon = test system: COLO 205 colon
SK-MEL-28 melanoma = test system: SK-MEL-28 melanoma
EKVX NSCLC = test system: EKVX NSCLC
KM20L2 colon = test system: KM20L2 colon
SR leukemia = test system: SR leukemia
K-562 leukemia = test system: K-562 leukemia
ACHN renal = test system: ACHN renal
LOX IMVI melanoma = test system: LOX IMVI melanoma
NCI-H522 lung = test system: NCI-H522 lung
NCI-H226 lung = test system: NCI-H226 lung

**Q.** What does the source list for `C[CH2][Sn]([CH2]C)([O]C(=O)c1c(F)cccc1F)[O][Sn]([CH2]C)([CH2]C)[O]C(=O)c1c(F)cccc1F`?
**A.** GI50 (TK-10 renal): 19.2 µM; TGI (TK-10 renal): 33.3 µM; GI50 (SF-295 CNS): 20.1 µM; TGI (SF-295 CNS): 34.5 µM; GI50 (HCC-2998 colon): 42.8 µM; TGI (HCC-2998 colon): > 100 µM; GI50 (OVCAR-8 ovarian): 17.2 µM; TGI (OVCAR-8 ovarian): 30.9 µM; GI50 (SNB-75 CNS): 16.2 µM; TGI (SNB-75 CNS): 29.7 µM; GI50 (IGROV1 ovarian): 69 µM; TGI (IGROV1 ovarian): > 100 µM; GI50 (UACC-62 melanoma): 17.6 µM; TGI (UACC-62 melanoma): 31.4 µM; GI50 (HCT-15 colon): 17.9 µM; TGI (HCT-15 colon): 32.5 µM; GI50 (OVCAR-5 ovarian): 17.9 µM; TGI (OVCAR-5 ovarian): 31.8 µM; GI50 (MOLT-4 leukemia): 23.4 µM; TGI (MOLT-4 leukemia): 88.3 µM; GI50 (A498 renal): 15 µM; TGI (A498 renal): 28.3 µM; GI50 (SK-MEL-2 melanoma): 14.4 µM; TGI (SK-MEL-2 melanoma): 27.7 µM; GI50 (OVCAR-4 ovarian): 18.8 µM; TGI (OVCAR-4 ovarian): 33 µM; GI50 (SK-OV-3 ovarian): 41.3 µM; TGI (SK-OV-3 ovarian): > 100 µM; GI50 (M14 melanoma): 18.1 µM; TGI (M14 melanoma): 32 µM; GI50 (U251 CNS): 17.4 µM; TGI (U251 CNS): 31.2 µM; GI50 (KM12 colon): > 100 µM; TGI (KM12 colon): > 100 µM; GI50 (DMS 273 small cell lung): 18.6 µM; TGI (DMS 273 small cell lung): 35.2 µM; GI50 (HOP-62 NSCLC): 20.8 µM; TGI (HOP-62 NSCLC): 36.9 µM; GI50 (CCRF-CEM leukemia): 3.85 µM; TGI (CCRF-CEM leukemia): 17.1 µM; GI50 (NCI-H460 lung): 20 µM; TGI (NCI-H460 lung): 40.6 µM; GI50 (OVCAR-3 ovarian): 25.9 µM; TGI (OVCAR-3 ovarian): 78.1 µM; GI50 (A549 NSCLC): > 100 µM; TGI (A549 NSCLC): > 100 µM; GI50 (HOP-92 NSCLC): 18.8 µM; TGI (HOP-92 NSCLC): 32.9 µM; GI50 (LXFL 529 NSCLC): 5.44 µM; TGI (LXFL 529 NSCLC): 18.4 µM; GI50 (SK-MEL-5 melanoma): 18.2 µM; TGI (SK-MEL-5 melanoma): 32.3 µM; GI50 (HOP-18 NSCLC): 22.6 µM; TGI (HOP-18 NSCLC): 37.1 µM; GI50 (SF-268 CNS): 15.3 µM; TGI (SF-268 CNS): 28.6 µM; GI50 (SW-620 colon): 16.3 µM; TGI (SW-620 colon): 29.9 µM; GI50 (NCI-H23 lung): 15.9 µM; TGI (NCI-H23 lung): 29.3 µM; GI50 (HL-60(TB) leukemia): 26.5 µM; TGI (HL-60(TB) leukemia): 76.7 µM; GI50 (M19-MEL melanoma): 16.3 µM; TGI (M19-MEL melanoma): 30.9 µM; GI50 (UO-31 renal): 36 µM; TGI (UO-31 renal): > 100 µM; GI50 (MALME-3M melanoma): 14.9 µM; TGI (MALME-3M melanoma): 28.8 µM; GI50 (UACC-257 melanoma): 16.5 µM; TGI (UACC-257 melanoma): 30.2 µM; GI50 (RXF 393 renal): 13.7 µM; TGI (RXF 393 renal): 26.6 µM; GI50 (786-0 renal): 16 µM; TGI (786-0 renal): 29.7 µM; GI50 (HCT-116 colon): 19 µM; TGI (HCT-116 colon): 34 µM; GI50 (SN12C renal): 16 µM; TGI (SN12C renal): 29.5 µM; GI50 (HT29 colon): 19.8 µM; TGI (HT29 colon): 42.2 µM; GI50 (SNB-19 CNS): 17.1 µM; TGI (SNB-19 CNS): 30.8 µM; GI50 (SF-539 CNS): 14.9 µM; TGI (SF-539 CNS): 28.1 µM; GI50 (SNB-78 CNS): 15.8 µM; TGI (SNB-78 CNS): 32.4 µM; GI50 (COLO 205 colon): 12.6 µM; TGI (COLO 205 colon): 25.1 µM; GI50 (SK-MEL-28 melanoma): 15.6 µM; TGI (SK-MEL-28 melanoma): 29 µM; GI50 (EKVX NSCLC): 16.8 µM; TGI (EKVX NSCLC): 30.6 µM; GI50 (KM20L2 colon): 26.7 µM; TGI (KM20L2 colon): 68.8 µM; GI50 (SR leukemia): 26.6 µM; TGI (SR leukemia): > 100 µM; GI50 (K-562 leukemia): 8.61 µM; TGI (K-562 leukemia): 37.5 µM; GI50 (ACHN renal): 19.1 µM; TGI (ACHN renal): 33.2 µM; GI50 (LOX IMVI melanoma): 16.1 µM; TGI (LOX IMVI melanoma): 29.9 µM; GI50 (NCI-H522 lung): 1.1 µM; TGI (NCI-H522 lung): 2.36 µM; GI50 (NCI-H226 lung): 22 µM; TGI (NCI-H226 lung): 36.7 µM
